Laboratory results: patent US20020165130A1, “Method of sensitizing microbial cells to antimicrobial compounds” (priority 1998, published 2002)
Entries after “also recorded” stand apart in the source; their conditions may differ.

Legend:
[1] = system: Staphylococcus aureus ATCC 6538; assay: Antibiotic disc assay (zones of inhibition), S. aureus; format: cell-based
Description: (§1) Erwinia sp. #351 was from Presque Isle Cultures, Presque Isle, Pa. Lactobacillus fermentum ATCC 14931, zygosaccharomyces bailii ATCC 60483 and E. coli ATCC 25922 (National Committee on Clinical Laboratory Standards antibiotic test strain) were from the American Type Culture Collection, Manassas, Va. Staphylococcus aureus ATCC 6538 and Enterococcus faecalis Bact. 4025 were obtained from the UW-Madison Department of Bacteriology culture collection. All bacteria except for L. fermentum were grown statically in screwcap tubes containing 10 ml Trypticase Soy Broth (BBL, Cockeysville, Md.) for 20-22 hours at 30° C. L. fermentum was grown statically in screwcap tubes containing 10 ml MRS broth (Difco) for 20-22 hours at 30° C. Cultures of Z. bailii were grown in 125 ml culture flasks containing 50 ml YM broth (Difco) on a rotary shaker set at 200 rpm for 20-22 hours at 25° C.
(§2) The activity of terpenoid compounds toward facilitating susceptibility to antibiotics was assessed using an antibiotic disc assay. For this assay, cells from an overnight growth were suspended to a known concentration in 0.5 ml 67 mM phosphate buffer, pH 7.0 and mixed with 4.5 ml 0.7% Iso-Sensitest agar (Oxoid, Basingstoke, Hampshire, England) overlay tempered to 50° C. Terpenoid compounds dissolved in absolute ethanol were added to the cell/agar overlay mixture yielding final concentrations of 0.5, 1.0 or 2.0 mM, depending on the experiment. The final concentration of ethanol in cell overlays was 0.5% and the final concentration of target cells was ca. 10^6 cfu/ml. After thorough vortexing, terpenoid-containing cell overlays were poured over hardened Iso-Sensitest agar (2% agar) plates and allowed to set. […] After incubation, zones of inhibition were measured with a ruler from the bottom of the plates.

[2] = system: E. coli ATCC 25922; assay: Plating assay, nerolidol enhancing polymyxin B activity against E. coli; format: cell-based, Escherichia coli; details: 1 mM nerolidol plus 10 ppm polymyxin B, up to 30 minutes at 37° C.
Description: as §1, with “25° C. […]” for “25° C.”
Cell suspensions (1.7×10^7 cfu/ml in 67 mM phosphate buffer, pH 7.0) were treated as shown and incubated for up to 30 minutes at 37° C. Cell viability was determined at appropriate intervals by pour plating with Trypticase Soy agar tempered to 50° C.

[3] = system: zygosaccharomyces bailii ATCC 60483; assay: Flow cytometry, uptake of ethidium bromide by Z. bailii; format: cell-based; details: 0.5 mM sesquiterpenoid, 15 μM ethidium bromide, 40 minutes
Description: (§3) Erwinia sp. #351 was from Presque Isle Cultures, Presque Isle, Pa. Lactobacillus fermentum ATCC 14931, zygosaccharomyces bailii ATCC 60483 and E. coli ATCC 25922 (National Committee on Clinical Laboratory Standards antibiotic test strain) were from the American Type Culture Collection, Manassas, Va. Staphylococcus aureus ATCC 6538 and Enterococcus faecalis Bact. 4025 were obtained from the UW-Madison Department of Bacteriology culture collection. All bacteria except for L. fermentum were grown statically in screwcap tubes containing 10 ml Trypticase Soy Broth (BBL, Cockeysville, Md.) for 20-22 hours at 30° C. L. fermentum was grown statically in screwcap tubes containing 10 ml MRS broth (Difco) for 20-22 hours at 30° C. Cultures of Z. bailii were grown in 125 ml culture flasks containing 50 ml YM broth (Difco) on a rotary shaker set at 200 rpm for 20-22 hours at 25° C. For experiments involving flow cytometry, overnight cultures of Erwinia sp., L. fermentum and Z. bailli were set to a concentration of ca. 10^7 cfu/ml in 67 mM phosphate buffer, pH 7.0 (filtered, 0.2 μm). For the examination of sesquiterpenoids, cell suspensions containing either 0.5% ethanol and 15 μM ethidium bromide or 0.5 mM apritone, bisabolol, nerolidol or farnesol dissolved in ethanol (0.5% ethanol, final concentration) and 15 μM ethidium bromide were incubated for 40 minutes at room temperature. After incubation, cell suspensions were diluted 1:10 in 67 mM phosphate buffer, pH 7.0 (filtered, 0.2 μm) and examined using a FACScan flow cytometer (Becton Dickinson and Company, Cockeysville, Md.). Data were collected in logarithmic mode on forward scatter, side scatter and fluorescence characteristics of the cells.

[4] = system: Enterococcus faecalis Bact. 4025; format: cell-based; details: E. faecalis
Description: as §1, §2

[5] = system: Lactobacillus fermentum ATCC 14931; assay: Flow cytometry, uptake of ethidium bromide by L. fermentum; format: cell-based; details: 15 μM ethidium bromide
Description: as §3

With C=CC(C)(O)CCC=C(C)CCC=C(C)C (stereo not shown) [nerolidol] the “ability to sensitize S. aureus to ciprofloxacin” value ([1]; 0.5 mM terpenoid, ciprofloxacin 5 μg disc) was “most effective”, the “sensitization to six different antibiotics” value ([1]; disc diffusion, 0.5-2 mM sesquiterpenoid) was “readily sensitized” and the “zone size, ciprofloxacin 5 μg disc” value ([1]; terpenoid at 0.5 mM in agar overlay, ciprofloxacin 5 μg disc) was 27.5 mm. For the same molecule, the “susceptibility of E. coli to polymyxin B (cell viability, cfu/ml)” value [2] was “dramatic increase in the susceptibility; also recorded: synergistic effect”, the “uptake of ethidium bromide (fluorescence, chromosomal staining)” value [3] was “became more fluorescent” and the “zones smaller than control plates by” value ([4]; clindamycin 2 μg disc, 1 mM sesquiterpenoid) was 1 mm. The “degree of sensitization to antibiotics” value ([4]; disc diffusion, 1 mM sesquiterpenoid) was “only a modest degree of sensitization”, the “enhancement of inhibition zone size” value ([4]; nerolidol 1 mM combined with gentamicin 10 μg disc) was “almost two-fold enhancement” and the “time to substantial uptake of ethidium bromide” value ([5]; 0.5 mM nerolidol) was at most 5 min. The “uptake of ethidium bromide (ethidium-conferred fluorescence)” value ([5]; 0.5 mM sesquiterpenoid, 40 minutes) was “facilitated the uptake of ethidium bromide”.
